Test [1] is filed under the species Mus musculus. Kind of test: Effect on behavioral activity in Albino mouse assessed as inhibition of diazepam-induced loss of righting reflex at 0.2 ml/10 g after 2 hrs by hippocratic screen. Format: functional, organism-based.
The target in test [2] is T1, Gamma-aminobutyric acid receptor subunit alpha-5 (Homo sapiens, UniProt P18507+P31644+P47870).
T1 sequence (P31644 whole entry): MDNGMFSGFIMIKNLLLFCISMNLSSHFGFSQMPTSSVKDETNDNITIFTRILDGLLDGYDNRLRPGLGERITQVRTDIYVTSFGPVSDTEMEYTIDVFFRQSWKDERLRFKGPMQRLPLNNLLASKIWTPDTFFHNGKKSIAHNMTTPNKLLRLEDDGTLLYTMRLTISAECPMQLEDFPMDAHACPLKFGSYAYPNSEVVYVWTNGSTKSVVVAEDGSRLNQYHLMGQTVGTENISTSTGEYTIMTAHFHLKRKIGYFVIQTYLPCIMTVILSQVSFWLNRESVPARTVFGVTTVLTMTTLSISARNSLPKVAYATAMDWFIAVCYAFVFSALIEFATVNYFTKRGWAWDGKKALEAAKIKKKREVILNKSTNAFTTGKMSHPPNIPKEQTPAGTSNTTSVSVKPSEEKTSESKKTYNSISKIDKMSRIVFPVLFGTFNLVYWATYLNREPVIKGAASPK
Nature of the test: Displacement of [3H]flunitrezepam from GABAA alpha-5-beta-2-gamma-2 receptor by liquid scintillation counting. (Displacement assays read how much labelled ligand stays bound in the presence of the test substance.)

Test [3] has as its target T2, GABA A receptor alpha-2/beta-2/gamma-2 (Homo sapiens, UniProt P18507+P47869+P47870).
T2 sequence (P47870 whole entry): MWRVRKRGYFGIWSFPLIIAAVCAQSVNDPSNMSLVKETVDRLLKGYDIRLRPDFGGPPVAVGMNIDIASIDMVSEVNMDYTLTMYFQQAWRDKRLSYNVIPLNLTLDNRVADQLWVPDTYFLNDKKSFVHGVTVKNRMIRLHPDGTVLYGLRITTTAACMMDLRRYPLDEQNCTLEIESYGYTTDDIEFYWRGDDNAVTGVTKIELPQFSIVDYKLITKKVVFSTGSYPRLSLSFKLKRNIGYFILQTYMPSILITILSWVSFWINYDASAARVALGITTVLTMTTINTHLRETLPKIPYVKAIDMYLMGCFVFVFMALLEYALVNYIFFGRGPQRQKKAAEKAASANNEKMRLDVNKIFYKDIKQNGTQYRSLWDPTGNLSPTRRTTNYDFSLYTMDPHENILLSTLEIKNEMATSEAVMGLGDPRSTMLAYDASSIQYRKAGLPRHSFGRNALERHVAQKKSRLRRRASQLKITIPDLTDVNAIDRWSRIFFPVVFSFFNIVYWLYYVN
T2 sequence (P18507 whole entry): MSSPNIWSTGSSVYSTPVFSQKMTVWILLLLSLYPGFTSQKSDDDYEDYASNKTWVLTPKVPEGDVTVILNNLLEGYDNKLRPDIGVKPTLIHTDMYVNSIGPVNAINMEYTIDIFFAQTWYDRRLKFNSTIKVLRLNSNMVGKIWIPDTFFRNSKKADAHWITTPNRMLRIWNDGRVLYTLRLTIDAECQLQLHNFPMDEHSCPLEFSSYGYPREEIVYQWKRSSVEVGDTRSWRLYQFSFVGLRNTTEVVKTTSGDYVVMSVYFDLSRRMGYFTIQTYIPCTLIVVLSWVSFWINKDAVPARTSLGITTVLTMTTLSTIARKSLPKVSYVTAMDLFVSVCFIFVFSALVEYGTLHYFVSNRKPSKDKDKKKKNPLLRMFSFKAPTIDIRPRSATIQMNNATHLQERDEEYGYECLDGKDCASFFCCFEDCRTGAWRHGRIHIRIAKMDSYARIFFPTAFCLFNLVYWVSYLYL
T2 sequence (P47869 whole entry): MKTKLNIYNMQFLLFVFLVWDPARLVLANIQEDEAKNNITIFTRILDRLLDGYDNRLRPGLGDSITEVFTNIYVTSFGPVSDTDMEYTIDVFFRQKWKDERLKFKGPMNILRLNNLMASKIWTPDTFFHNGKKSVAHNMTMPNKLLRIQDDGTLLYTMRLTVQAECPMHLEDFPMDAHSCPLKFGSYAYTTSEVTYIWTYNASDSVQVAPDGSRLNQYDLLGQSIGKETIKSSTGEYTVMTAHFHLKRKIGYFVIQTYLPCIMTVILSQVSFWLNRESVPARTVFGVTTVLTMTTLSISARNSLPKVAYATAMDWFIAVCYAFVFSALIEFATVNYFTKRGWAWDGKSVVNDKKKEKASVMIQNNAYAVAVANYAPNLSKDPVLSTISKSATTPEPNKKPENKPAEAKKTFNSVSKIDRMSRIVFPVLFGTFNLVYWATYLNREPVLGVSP
Nature of the test: Displacement of [3H]flunitrezepam from GABA-A alpha-2-beta-2-gamma-2 receptor by liquid scintillation counting. Format: protein-complex assay.

The species named for test [4] is Mus musculus. Nature of the test: Effect on behavioral activity in Albino mouse assessed as inhibition of diazepam-induced decrease in respiratory rate at 0.2 ml/10 g by hippocratic screen. Format: functional, organism-based.
Test [5] is filed under the species Mus musculus. Kind of test: Effect on behavioral activity in Albino mouse assessed as inhibition of diazepam-induced startle reaction at 0.2 ml/10 g by hippocratic screen. Format: functional, organism-based.
The species entered for test [6] is Mus musculus. Nature of the test: Effect on behavioral activity in Albino mouse assessed as inhibition of diazepam-induced anesthesia at 0.2 ml/10 g by hippocratic screen. Format: functional, organism-based.
The species entered for test [7] is Mus musculus. Nature of the test: Effect on behavioral activity in Albino mouse assessed as inhibition of diazepam-induced tremors at 0.2 ml/10 g by hippocratic screen. Format: functional, organism-based.

Drawing on ChEMBL document CHEMBL1157703, “Synthesis, pharmacological studies and molecular modeling of some tetracyclic 1,3-diazepinium chlorides” (Bioorg Med Chem, 2010), this text covers Activity and Ki for 1 molecule.

Active and inactive are the calls of the source. The calls are words filed in the database; no cut-off is given here.

The Ki is a measure of affinity in units of concentration, obtained from inhibition or displacement. A higher Ki goes with lower affinity. Consider `COc1ccc2c3c(oc2c1)C(=O)Nc1cccc[n+]1C3.[Cl-]`, for which the result in the test filed under Mus musculus [1], in the test filed under Mus musculus [4], in the test listed under Mus musculus [5], in the test filed under Mus musculus [6] and in the test filed under Mus musculus [7] was inactive. Moreover, the results for the inhibition constant (Ki) in test [2] and in test [3] were 2360 nM and 8.08 µM, respectively.
